Experiment [1] concerns the target Delta-type opioid receptor (Homo sapiens, UniProt P41143). The experiment in a line: SAR Analysis of Agonists of the DOR Receptor using an Image-Based Assay - Set 3. [Related pubchem assays (depositor defined):AID1777, AID1786]. It is filed as functional.
The target in experiment [2] is T1, Kappa-type opioid receptor (Homo sapiens, UniProt P41145). The experiment in a line: kappa opioid receptor activation by imaging – image-based, set 3, SAR follow-up (AID 488833). It is filed as functional.
The next experiment deals with Mu-type opioid receptor (Homo sapiens, UniProt P35372). The experiment in a line: SAR Analysis of Agonists of the MOR Receptor using an Image-Based Assay - Set 3. [Related pubchem assays (depositor defined):AID1777, AID1785, AID1786, AID1966, AID2133, AID2136, AID2284, AID2285, AID2352]. It is filed as functional.
The target in experiment [3] is T1, Kappa-type opioid receptor. The experiment in a line: SAR analysis of small molecule agonists of the kappa opioid receptor via a luminescent beta-arrestin assay - Set 3. [Related pubchem assays (depositor defined):AID1777, AID1785, AID1786, AID1966, AID2133, AID2136, AID2284, AID2500]. The class given is functional.
Experiment [4] can be described thus: alpha-synuclein stem-loop translation blockers – luminescence, H4 neuroglioblastoma cells, dose confirmation, confirmation (AID 2454).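 Note: H4 neuroglioblastoma cells carrying an alpha-synuclein 5'UTR luciferase reporter; potency for inhibition of the luciferase signal.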 The class given is functional, cell-based.
Experiment [5] in a line: luciferase reporter signal suppression in cells – H4 neuroglioma cells, luminescence, dose response (AID 1990). It is filed as functional, cell-based. Background: Reporter assays use an easily measured gene product as a stand-in for the process of interest.
A short description of experiment [6]: Luminescence Cell-Based Dose Response HTS to Identify Inhibitors of 5'UTR Stem-Loop Driven Prion Protein mRNA Translation in H4 Neuroglioblastoma Cells. [Related pubchem assays: 1827 (Project Summary), 1813 (Primary HTS)]. The class given is functional.
Experiment [7] is described as follows: Luminescence Cell-Based Dose Retest to Confirm Activators of 5'UTR Stem-Loop Driven Alpha-Synuclein mRNA Translation in H4 Neuroglioblastoma Cells. [Related pubchem assays (depositor defined):AID1813, AID1829]. It is filed as functional.
Experiment [8] in a line: Luminescence Cell-Based Dose HTS Response to Identify Inhibitors of 5'UTR Stem-Loop Driven Prion Protein mRNA Translation in H4-C Neuroglioblastoma Cells. [Related pubchem assays (depositor defined):AID1814, AID1827]. The class given is functional.
Experiment [9] is described as follows: Luminescence Cell-Based Dose Response HTS to Identify Activators of 5'UTR Stem-Loop Driven Prion Protein mRNA Translation in H4-C Neuroglioblastoma Cells. [Related pubchem assays: 1829 (Project Summary), 1814 (Primary HTS)]. The class given is functional.
The next experiment can be described thus: cells. It is filed as functional, cell-based.
A short description of experiment [10]: luciferase reporter signal reduction – luminescence, H4-C neuroglioblastoma cells, dose response (AID 2458).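 Note: H4 neuroglioblastoma cells stably carrying a luciferase reporter gene fusion.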 It is filed as functional, cell-based.
The nature of experiment [11]: Luminescence Cell-Based Dose Response HTS to Identify Activators of Luciferase Translation or Activity in H4-C Neuroglioblastoma Cells. [Related pubchem assays: 1829 (Project Summary), 1814 (Primary HTS)]. The class given is functional.
Experiment [12] concerns BJ. The experiment in a line: cells. The class given is functional, cell-based. Particulars: Homo sapiens.
In experiment [13] the test system is BJ. The experiment in a line: BJ-TERT fibroblast viability loss – cell-based, RAS-independent, luminescence, dose response (AID 1933). It is filed as functional. The following applies: Homo sapiens.
For experiment [14], the system named is BJ. The experiment in a line: BJ-TERT-LT-ST fibroblast viability loss – cell-based, RAS-independent, luminescence, dose response (AID 1935).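 Note: BJ fibroblasts immortalized with TERT plus LT and ST oncogenes.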 The class given is functional. Particulars: Homo sapiens.
The nature of experiment [15]: alpha-synuclein stem-loop luciferase translation blockers – H4 neuroglioma cells, luminescence, confirmation (AID 1988). It is filed as functional, cell-based.
The nature of experiment [16]: DRD fibroblast viability loss – cell-based, non-viral oncogenic, luminescence, dose response (AID 1934). It is filed as functional. The following applies: Homo sapiens.
Experiment [17] can be described thus: Luminescence Cell-Based Dose Response HTS to Identify Inhibitors of Luciferase Translation or Activity in H4-C Neuroglioblastoma Cells. [Related pubchem assays: 1813 (Primary HTS), 1827 (Project Summary)]. It is filed as functional.
Experiment [18] in a line: Luminescence Cell-Based Dose Confirmation HTS to Identify Inhibitors of 5'UTR Stem-Loop Driven Alpha-Synuclein mRNA Translation in H4 Neuroglioblastoma Cells. [Related pubchem assays: 1827 (Project Summary), 1813 (Primary HTS)]. The class given is functional.
The target of experiment [19] is T2, Sphingosine 1-phosphate receptor 4 (Homo sapiens, UniProt O95977).
T2 sequence (O95977 whole entry): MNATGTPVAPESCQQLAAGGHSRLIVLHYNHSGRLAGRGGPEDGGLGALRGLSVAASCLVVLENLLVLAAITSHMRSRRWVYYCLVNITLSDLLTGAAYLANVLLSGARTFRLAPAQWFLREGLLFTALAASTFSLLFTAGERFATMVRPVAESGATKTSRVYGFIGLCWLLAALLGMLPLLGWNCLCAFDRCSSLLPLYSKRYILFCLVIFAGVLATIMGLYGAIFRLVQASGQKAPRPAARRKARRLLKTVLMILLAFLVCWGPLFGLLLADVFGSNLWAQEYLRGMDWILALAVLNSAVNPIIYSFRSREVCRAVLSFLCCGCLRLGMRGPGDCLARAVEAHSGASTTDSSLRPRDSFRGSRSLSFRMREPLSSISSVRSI
The experiment in a line: Fluorescence dose response cell-based high throughput screening assay for agonists of the Sphingosine 1-Phosphate Receptor 4 (S1P4). [Related pubchem assays: 1509 (Primary screen.), 1523 (Confirmation screen in triplicates.)]. The class given is functional.

Experiment [20] has as its target Sphingosine 1-phosphate receptor 1 (Homo sapiens, UniProt P21453). The experiment in a line: Fluorescence-based counterscreen assay for S1P4 agonists: Cell-based dose response high throughput screening assay to identify agonists of the Sphingosine 1-Phosphate Receptor 1 (S1P1). [Related pubchem assays (depositor defined):AID1509, AID1523, AID1801, AID463107, AID463118, AID463119, AID463122, AID463123, AID463129, AID463225, AID504400, AID504460]. It is filed as functional. For orientation: Counterscreens check selectivity or assay interference.

Experiment [21] addresses T3, Cannabinoid receptor 1 (Homo sapiens, UniProt P21554). The experiment in a line: SAR analysis of antagonists of the Cannabinoid Receptor 1 using an Image-Based Assay - Set 4. [Related pubchem assays (depositor defined):AID2013, AID2026]. The class given is functional.
In experiment [22] the target is G-protein coupled receptor 55 (Homo sapiens, UniProt Q9Y2T6). The experiment in a line: SAR Analysis of Selective Antagonists of GPR55 using an Image-Based Assay - Set 4. [Related pubchem assays (depositor defined):AID2013, AID2026]. It is filed as functional.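 Note: antagonism of response to 5 µM lysophosphatidylinositol agonist.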
Experiment [23] concerns the target T3, Cannabinoid receptor 1. The experiment in a line: SAR analysis of agonists of the Cannabinoid Receptor 1 using an Image-Based Assay - Set 4. [Related pubchem assays (depositor defined):AID2013, AID2026]. It is filed as functional.
For experiment [24], the target named is T4, Cannabinoid receptor 2 (Homo sapiens, UniProt P34972). The experiment in a line: SAR analysis of agonists of the Cannabinoid Receptor 2 using an Image-Based Assay - Set 3. [Related pubchem assays (depositor defined):AID2013, AID2026]. The class given is functional.
Experiment [25] has as its target T5, G-protein coupled receptor 35 (Homo sapiens, UniProt Q9HC97). The experiment in a line: SAR analysis of Antagonists of the GPR35 Receptor using an Image-Based Assay - Set 6. [Related pubchem assays (depositor defined):AID2013, AID2026]. The class given is functional.
Experiment [26] addresses T4, Cannabinoid receptor 2. The experiment in a line: SAR analysis of antagonists of the Cannabinoid Receptor 2 using an Image-Based Assay - Set 3. [Related pubchem assays (depositor defined):AID2013, AID2026]. It is filed as functional.
The target of experiment [27] is T5, G-protein coupled receptor 35. The experiment in a line: SAR analysis of Agonists of the GPR35 Receptor using an Image-Based Assay - Set 4. [Related pubchem assays (depositor defined):AID2013, AID2026]. The class given is functional.
A short description of experiment [28]: antiviral efficacy against SV40, host toxicity – BSC cells, set 3, confirmation (AID 485276). It is filed as functional, cell-based.
Experiment [29] addresses Peroxisome proliferator-activated receptor gamma/Nuclear receptor coactivator 3 (Homo sapiens, UniProt P37231). The experiment in a line: TR-FRET dose response biochemical High Throughput Screening assay for agonists of the steroid receptor coactivator 3 (SRC-3) recruitment by the peroxisome proliferator-activated receptor gamma (PPAR gamma): non-selective agonists. [Related pubchem assays: 1301 (Confirmation screen.), 1048 (Primary screen.)]. It is filed as functional. In general terms: In TR-FRET formats the signal depends on donor and acceptor labels being close together.

For experiment [30], the target named is Peroxisome proliferator-activated receptor gamma/Nuclear receptor coactivator 2 (Homo sapiens, UniProt P37231). The experiment in a line: TR-FRET dose response biochemical High Throughput Screening assay for agonists of the steroid receptor coactivator 2 (SRC-2) recruitment by the peroxisome proliferator-activated receptor gamma (PPAR gamma): non-selective agonists. [Related pubchem assays: 1297, 1032 ]. It is filed as functional.

The target of experiment [31] is Peroxisome proliferator-activated receptor gamma/Nuclear receptor coactivator 1 (Homo sapiens, UniProt P37231). The experiment in a line: TR-FRET dose response biochemical High Throughput Screening assay for agonists of the steroid receptor coactivator 1 (SRC-1) recruitment by the peroxisome proliferator-activated receptor gamma (PPAR gamma): non-selective agonists. [Related pubchem assays (depositor defined):AID1300, AID1808, AID504735, AID631]. It is filed as protein assay.

SMILES strings stand for the structures. Activity calls are given as the source filed them.

The term EC50 denotes the concentration giving half of the maximal effect. In general, IC50 refers to the concentration that inhibits the measured activity by half.

T5 sequence (Q9HC97 whole entry): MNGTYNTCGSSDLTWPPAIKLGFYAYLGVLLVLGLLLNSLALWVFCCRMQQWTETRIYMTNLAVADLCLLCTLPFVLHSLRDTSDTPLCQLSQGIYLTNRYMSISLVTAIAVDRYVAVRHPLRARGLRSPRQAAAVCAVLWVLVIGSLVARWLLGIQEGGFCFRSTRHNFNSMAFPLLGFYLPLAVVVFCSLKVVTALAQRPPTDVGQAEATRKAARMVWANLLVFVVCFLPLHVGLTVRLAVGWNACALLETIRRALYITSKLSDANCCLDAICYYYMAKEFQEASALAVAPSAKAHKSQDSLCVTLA
T4 sequence (P34972 whole entry): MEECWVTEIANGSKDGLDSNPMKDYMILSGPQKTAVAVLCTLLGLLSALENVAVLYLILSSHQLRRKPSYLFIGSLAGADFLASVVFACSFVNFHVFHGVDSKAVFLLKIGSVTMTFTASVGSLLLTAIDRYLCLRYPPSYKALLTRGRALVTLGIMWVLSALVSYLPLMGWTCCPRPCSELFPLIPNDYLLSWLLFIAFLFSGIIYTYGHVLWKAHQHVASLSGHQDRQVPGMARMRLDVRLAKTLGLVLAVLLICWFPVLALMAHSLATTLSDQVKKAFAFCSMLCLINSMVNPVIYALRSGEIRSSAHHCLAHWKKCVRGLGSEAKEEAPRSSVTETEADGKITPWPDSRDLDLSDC
T3 sequence (P21554 whole entry): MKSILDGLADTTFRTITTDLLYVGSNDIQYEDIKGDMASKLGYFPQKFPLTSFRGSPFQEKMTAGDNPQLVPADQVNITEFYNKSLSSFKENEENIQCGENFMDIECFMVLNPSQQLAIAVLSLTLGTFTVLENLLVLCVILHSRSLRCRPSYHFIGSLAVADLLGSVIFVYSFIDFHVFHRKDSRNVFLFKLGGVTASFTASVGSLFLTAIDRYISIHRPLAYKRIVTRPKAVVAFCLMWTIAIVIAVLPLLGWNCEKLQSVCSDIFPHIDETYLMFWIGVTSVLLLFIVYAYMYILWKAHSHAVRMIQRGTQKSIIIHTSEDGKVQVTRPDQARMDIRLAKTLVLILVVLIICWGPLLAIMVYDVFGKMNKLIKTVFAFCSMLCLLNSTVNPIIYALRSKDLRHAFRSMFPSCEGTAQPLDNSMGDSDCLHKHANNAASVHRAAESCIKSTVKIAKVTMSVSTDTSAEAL
T1 sequence (P41145 whole entry): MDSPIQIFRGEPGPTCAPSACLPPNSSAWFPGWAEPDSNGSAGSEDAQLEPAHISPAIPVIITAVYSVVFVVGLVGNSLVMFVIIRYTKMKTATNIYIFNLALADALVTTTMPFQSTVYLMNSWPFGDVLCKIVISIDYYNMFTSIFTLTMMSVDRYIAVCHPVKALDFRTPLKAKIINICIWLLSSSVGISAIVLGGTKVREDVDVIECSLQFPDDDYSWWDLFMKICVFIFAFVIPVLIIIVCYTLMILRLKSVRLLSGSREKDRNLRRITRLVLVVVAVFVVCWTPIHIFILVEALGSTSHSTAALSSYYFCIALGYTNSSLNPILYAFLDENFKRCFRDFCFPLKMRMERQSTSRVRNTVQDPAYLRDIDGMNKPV
Mu-type opioid receptor, sequence (P35372 whole entry): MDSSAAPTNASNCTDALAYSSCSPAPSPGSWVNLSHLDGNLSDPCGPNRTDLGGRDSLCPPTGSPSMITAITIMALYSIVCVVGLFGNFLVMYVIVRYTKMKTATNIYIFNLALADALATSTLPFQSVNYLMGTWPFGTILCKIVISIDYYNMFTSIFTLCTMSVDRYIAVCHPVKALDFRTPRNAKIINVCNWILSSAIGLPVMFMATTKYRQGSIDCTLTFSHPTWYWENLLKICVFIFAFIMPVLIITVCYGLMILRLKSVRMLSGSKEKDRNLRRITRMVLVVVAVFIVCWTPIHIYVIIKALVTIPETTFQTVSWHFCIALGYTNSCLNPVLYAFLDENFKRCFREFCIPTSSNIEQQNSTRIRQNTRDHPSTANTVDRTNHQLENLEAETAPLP
Sphingosine 1-phosphate receptor 1, sequence (P21453 whole entry): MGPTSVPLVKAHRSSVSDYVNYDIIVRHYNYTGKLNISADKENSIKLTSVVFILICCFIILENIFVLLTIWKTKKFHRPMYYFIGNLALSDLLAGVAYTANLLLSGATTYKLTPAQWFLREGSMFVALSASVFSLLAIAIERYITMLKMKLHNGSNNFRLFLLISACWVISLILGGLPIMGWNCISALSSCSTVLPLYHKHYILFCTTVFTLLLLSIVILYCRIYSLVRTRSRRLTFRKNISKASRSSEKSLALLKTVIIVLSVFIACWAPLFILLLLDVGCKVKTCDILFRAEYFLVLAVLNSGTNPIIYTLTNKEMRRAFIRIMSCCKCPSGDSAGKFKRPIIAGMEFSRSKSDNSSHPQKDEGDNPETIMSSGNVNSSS
Peroxisome proliferator-activated receptor gamma/Nuclear receptor coactivator 3, sequence (P37231 whole entry): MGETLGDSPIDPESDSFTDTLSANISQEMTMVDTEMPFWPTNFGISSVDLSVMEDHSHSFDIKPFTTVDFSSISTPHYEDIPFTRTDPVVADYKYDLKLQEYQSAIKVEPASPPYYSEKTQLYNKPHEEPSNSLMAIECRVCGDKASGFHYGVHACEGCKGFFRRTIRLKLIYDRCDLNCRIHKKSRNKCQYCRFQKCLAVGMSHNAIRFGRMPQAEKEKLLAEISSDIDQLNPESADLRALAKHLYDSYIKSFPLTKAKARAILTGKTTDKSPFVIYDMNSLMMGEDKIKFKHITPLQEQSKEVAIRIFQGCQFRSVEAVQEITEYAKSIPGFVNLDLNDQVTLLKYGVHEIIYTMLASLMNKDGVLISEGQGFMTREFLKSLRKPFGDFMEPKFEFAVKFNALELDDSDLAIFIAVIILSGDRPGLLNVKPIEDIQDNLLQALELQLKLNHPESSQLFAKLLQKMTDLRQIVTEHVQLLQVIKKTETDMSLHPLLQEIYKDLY
Peroxisome proliferator-activated receptor gamma/Nuclear receptor coactivator 3, sequence (Q9Y6Q9 whole entry, further chain): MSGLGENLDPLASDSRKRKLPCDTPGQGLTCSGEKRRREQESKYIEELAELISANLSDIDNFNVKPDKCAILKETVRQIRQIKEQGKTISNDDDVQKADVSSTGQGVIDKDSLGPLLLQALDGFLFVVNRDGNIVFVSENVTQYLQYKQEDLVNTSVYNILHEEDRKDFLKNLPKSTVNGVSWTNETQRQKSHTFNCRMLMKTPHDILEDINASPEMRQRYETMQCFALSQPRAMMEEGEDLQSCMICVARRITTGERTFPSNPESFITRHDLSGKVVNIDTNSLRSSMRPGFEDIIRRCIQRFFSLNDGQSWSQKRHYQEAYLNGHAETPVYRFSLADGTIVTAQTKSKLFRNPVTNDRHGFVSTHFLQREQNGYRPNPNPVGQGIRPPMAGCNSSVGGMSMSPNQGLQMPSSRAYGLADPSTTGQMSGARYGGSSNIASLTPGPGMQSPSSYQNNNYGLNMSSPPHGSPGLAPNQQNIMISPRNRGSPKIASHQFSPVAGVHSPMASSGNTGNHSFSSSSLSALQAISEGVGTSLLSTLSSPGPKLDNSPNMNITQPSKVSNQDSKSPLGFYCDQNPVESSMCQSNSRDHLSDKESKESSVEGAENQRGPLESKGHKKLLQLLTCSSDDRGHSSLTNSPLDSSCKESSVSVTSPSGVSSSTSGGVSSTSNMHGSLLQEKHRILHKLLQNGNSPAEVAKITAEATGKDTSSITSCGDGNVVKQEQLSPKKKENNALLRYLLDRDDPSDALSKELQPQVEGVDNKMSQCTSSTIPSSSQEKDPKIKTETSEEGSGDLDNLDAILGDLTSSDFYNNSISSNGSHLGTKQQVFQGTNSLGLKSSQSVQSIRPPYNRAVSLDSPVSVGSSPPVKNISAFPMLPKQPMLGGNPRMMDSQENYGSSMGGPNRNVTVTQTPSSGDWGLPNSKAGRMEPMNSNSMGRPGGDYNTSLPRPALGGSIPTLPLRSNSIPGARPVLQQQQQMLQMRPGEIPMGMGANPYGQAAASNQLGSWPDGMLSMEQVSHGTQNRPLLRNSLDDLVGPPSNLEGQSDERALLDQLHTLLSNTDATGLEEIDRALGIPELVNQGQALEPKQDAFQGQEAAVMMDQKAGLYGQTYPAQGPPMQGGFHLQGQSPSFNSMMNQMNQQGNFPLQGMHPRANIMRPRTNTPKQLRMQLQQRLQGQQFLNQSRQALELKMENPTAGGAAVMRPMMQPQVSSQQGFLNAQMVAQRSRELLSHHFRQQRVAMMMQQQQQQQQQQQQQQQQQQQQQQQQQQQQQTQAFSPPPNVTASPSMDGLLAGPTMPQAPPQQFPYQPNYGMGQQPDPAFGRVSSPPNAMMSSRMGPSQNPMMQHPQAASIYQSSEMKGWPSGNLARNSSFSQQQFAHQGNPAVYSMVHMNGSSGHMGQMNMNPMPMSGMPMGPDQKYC
G-protein coupled receptor 55, sequence (Q9Y2T6 whole entry): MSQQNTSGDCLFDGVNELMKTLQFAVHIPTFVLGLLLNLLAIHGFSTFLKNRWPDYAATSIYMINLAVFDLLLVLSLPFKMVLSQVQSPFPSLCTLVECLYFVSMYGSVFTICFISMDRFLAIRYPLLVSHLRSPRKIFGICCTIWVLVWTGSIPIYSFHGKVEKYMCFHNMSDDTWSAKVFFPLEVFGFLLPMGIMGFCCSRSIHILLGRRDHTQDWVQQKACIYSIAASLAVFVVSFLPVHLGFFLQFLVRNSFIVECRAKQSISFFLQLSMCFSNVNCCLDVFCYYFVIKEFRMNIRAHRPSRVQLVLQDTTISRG
Delta-type opioid receptor, sequence (P41143 whole entry): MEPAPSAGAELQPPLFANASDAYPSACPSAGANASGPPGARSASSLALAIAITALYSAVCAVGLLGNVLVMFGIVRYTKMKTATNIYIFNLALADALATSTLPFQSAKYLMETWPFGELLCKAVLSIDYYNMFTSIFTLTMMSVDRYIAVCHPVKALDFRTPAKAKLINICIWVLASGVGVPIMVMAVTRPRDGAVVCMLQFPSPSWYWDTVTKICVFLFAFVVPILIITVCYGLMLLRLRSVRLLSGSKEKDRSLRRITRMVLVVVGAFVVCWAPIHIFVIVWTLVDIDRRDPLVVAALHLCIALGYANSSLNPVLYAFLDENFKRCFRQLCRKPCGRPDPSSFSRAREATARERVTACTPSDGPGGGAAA

Take `Fc1cccc(F)c1CSc1nnc(-c2ccccn2)n1Cc1cccs1`: the EC50 in experiment [1] was > 32 µM (inactive); in [2] it was 20.9 µM (inactive); on Mu-type opioid receptor, > 32 µM (inactive); in experiment [3] it was 18 µM (inactive).
For the compound `Cc1ccc(-c2cc(C(=O)N/N=C/c3c(C)nn(-c4ccccc4)c3C)[nH]n2)s1`, the EC50 is 6.08 µM (active) in [4]; 6.26 µM (inconclusive) in experiment [5]; 11.6 µM (active) in experiment [6]; 2.69 µM (inconclusive) in experiment [7]; 1.23 µM (active) in experiment [8]; 0.509 µM (inconclusive) in experiment [9]. Moreover, the EC50 in “cells” is 4.24 µM (active); in [10], 1.71 µM (active); in [11], 1.16 µM (inconclusive); in the experiment with BJ [12] it was 46.3 µM (inconclusive); in the experiment on BJ [13], 0.413 µM (active); with BJ [14] it was 0.396 µM (inconclusive). The EC50 in experiment [15] was < 0.1 µM (active); in experiment [16], 20 µM (inconclusive); in experiment [17], 0.806 µM (active); in experiment [18], 1.38 µM (active).
Regarding `Cc1cccc(-n2c(=O)c(C#N)cc3c(=O)n4ccccc4nc32)c1`, the EC50 in [19] is 4.06 µM (active); in [20], 8.75 µM (active).
As for `N=c1c(C(=O)NCc2ccccc2)cc2c(=O)n3ccccc3nc2n1C1CCCC1`, the IC50 is 15.9 µM (inactive) at Cannabinoid receptor 1 [21], 4.1 µM (active) in experiment [22], > 32 µM (inactive) in experiment [25] and > 32 µM (inactive) on Cannabinoid receptor 2 [26]. Further, the results for the EC50 (at Cannabinoid receptor 1 [23]; at Cannabinoid receptor 2 [24]; in experiment [27]) were > 32 µM (inactive), 1.31 µM (active) and > 32 µM (inactive), respectively.
Turning to `CC(C)(c1ccc(O)cc1)c1ccc(O)cc1` [BISPHENOL A], the IC50 in experiment [28] is 9.3 µM (active).
Turning to `CC(C)C(OC(=O)c1cc2occc2n1C)C(=O)NCc1ccc2c(c1)OCO2` (stereo not drawn), the EC50 in experiment [29] is > 79.4 µM (not active); in experiment [30] it was > 79.4 µM (not active); in [31], > 79.4 µM (inactive).

(Values after ChEMBL document CHEMBL1201862, “PubChem BioAssay data set” (2004).)
